Experimental data from patent US9981942B2, “Piperidine derivatives having multimodal activity against pain” (LABORATORIOS DEL DR. ESTEVE S.A., priority 2013, dated 2018).

The compounds below were run on σ1 receptor and the μ-opiod receptor (assay: μ and σ1 dual binding: combined class from the Ki of both radioligand assays). Conditions: combined class for Ki-μ and Ki-σ1; transfected HEK-293 membranes (σ1), transfected CHO-K1 cell membranes (μ).
Design: species or system human; key to μ and σ1 dual binding: +: Both Ki-μ and Ki-σ1>=500 nM; ++: One Ki<500 nM while the other Ki is >=500 nM; +++: Both Ki-μ and Ki-σ1<500 nM; ++++: Both Ki-μ and Ki-σ1<100 nM
In short: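 Classes combine both Ki values, split at 500 nM and 100 nM. Human μ-opioid binding used 1 nM [3H]-DAMGO on CHO-K1 membranes (27 °C, 60 min, pH 7.4, naloxone 10 μM for NSB); human σ1 used 5 nM [3H](+)-pentazocine on HEK-293 membranes (37 °C, 120 min, pH 8, haloperidol 10 μM for NSB).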

Row | Structure (SMILES) | μ and σ1 dual binding
1 | CC(C)S(=O)(=O)Nc1cccc(C2CCN(Cc3cn(Cc4ncccc4F)nn3)CC2)n1 [Example 209, N-(6-(1-((1-((3-fluoropyridin-2-yl)methyl)-1H-1,2,3-triazol-4-yl)methyl)piperidin-4-yl)pyridin-2-yl)propane-2-sulfonamide] | ++
2 | Oc1cccc(C2CCN(Cc3cn(Cc4ncccc4O)nn3)CC2)c1 [Example 156, 2-((4-((4-(3-hydroxyphenyl)piperidin-1-yl)methyl)-1H-1,2,3-triazol-1-yl)methyl)pyridin-3-ol] | ++
3 | CC(C)S(=O)(=O)Nc1cccc(C2CCN(Cc3cn([C@H]4c5ccccc5C[C@@H]4O)nn3)CC2)c1 [Example 105, N-(3-(1-((1-((1S,2S)-2-hydroxy-2,3-dihydro-1H-inden-1-yl)-1H-1,2,3-triazol-4-yl)methyl)piperidin-4-yl)phenyl)propane-2-sulfonamide] | ++
4 | CCC(=O)Nc1ccnc(C2CCN(Cc3cn(-c4ccccc4)nn3)CC2)c1 [Example 192, N-(2-(1-((1-phenyl-1H-1,2,3-triazol-4-yl)methyl)piperidin-4-yl)pyridin-4-yl)propionamide] | ++
5 | Oc1cccc(C2CCN(Cc3cn(Cc4ncccc4F)cn3)CC2)c1 [Example 189, 3-(1-((1-((3-fluoropyridin-2-yl)methyl)-1H-imidazol-4-yl)methyl)piperidin-4-yl)phenol] | ++
6 | CCN(CC)C(=O)Cn1cc(CN2CCC(c3cccc(O)c3)CC2)nn1 [Example 45, N,N-diethyl-2-(4-((4-(3-hydroxyphenyl)piperidin-1-yl)methyl)-1H-1,2,3-triazol-1-yl)acetamide] | ++
7 | CS(=O)(=O)Nc1cccc(C2CCN(Cc3cn(-c4ccccc4)nn3)CC2)n1 [Example 191, N-(6-(1-((1-phenyl-1H-1,2,3-triazol-4-yl)methyl)piperidin-4-yl)pyridin-2-yl)methanesulfonamide] | ++
8 | CS(=O)(=O)Nc1cccc([C@@H]2CCN(Cc3cn(-c4ccccc4)nn3)C[C@@H]2O)c1 [Example 110, N-(3-((3R,4S)-3-hydroxy-1-((1-phenyl-1H-1,2,3-triazol-4-yl)methyl)piperidin-4-yl)phenyl)methanesulfonamide] | ++

Same assay, conditions: transfected HEK-293 membranes (σ1), transfected CHO-K1 cell membranes (μ)

Row | Structure (SMILES) | Ki range for both μ and σ1 (dual-binding class) [nM]
9 | Oc1cccc(C2CCN(Cc3cn(Cc4ccc(C(F)(F)F)cn4)nn3)CC2)c1 [Example 152] | < 100
10 | Oc1cccc(C2CCN(Cc3cn(-c4ccc(C(F)(F)F)cc4F)nn3)CC2)c1 [Example 226, 3-(1-((1-(2-fluoro-4-(trifluoromethyl)phenyl)-1H-1,2,3-triazol-4-yl)methyl)piperidin-4-yl)phenol] | < 100
11 | Oc1cccc(C2CCN(Cc3cn([C@H]4CC[C@@H](C(F)(F)F)CC4)nn3)CC2)c1 [Example 82, 3-(1-((1-((1s,4s)-4-(trifluoromethyl)cyclohexyl)-1H-1,2,3-triazol-4-yl)methyl)piperidin-4-yl)phenol] | < 100
12 | CC(C)S(=O)(=O)Nc1cccc(C2CCN(Cc3cn(Cc4ccccc4)nn3)CC2)c1 [Example 79, N-(3-(1-((1-benzyl-1H-1,2,3-triazol-4-yl)methyl)piperidin-4-yl)phenyl)propane-2-sulfonamide] | < 500
13 | Oc1cccc(C2CCN(Cc3cn(Cc4ccccc4)cn3)CC2)c1 [Example 184, 3-(1-((1-benzyl-1H-imidazol-4-yl)methyl)piperidin-4-yl)phenol] | < 100
14 | CS(=O)(=O)Nc1cccc(C2CCN(Cc3cn([C@@H]4c5ccccc5C[C@H]4O)nn3)CC2)c1 [Example 92, N-(3-(1-((1-((1R,2R)-2-hydroxy-2,3-dihydro-1H-inden-1-yl)-1H-1,2,3-triazol-4-yl)methyl)piperidin-4-yl)phenyl)methanesulfonamide] | < 500
15 | CCNC(=O)Nc1cccc(C2CCN(Cc3cn(-c4ccccc4)nn3)CC2)c1 [Example 56, 1-ethyl-3-(3-(1-((1-phenyl-1H-1,2,3-triazol-4-yl)methyl)piperidin-4-yl)phenyl)urea] | < 500
16 | COc1ccc(-n2cc(CN3CCC(c4cccc(O)c4)CC3)nn2)nc1 [Example 217, 3-(1-((1-(5-methoxypyridin-2-yl)-1H-1,2,3-triazol-4-yl)methyl)piperidin-4-yl)phenol] | < 500
17 | CCC(=O)Nc1cccc(C2CCN(Cc3cn(-c4ccccc4)nn3)CC2)c1 [Example 7, N-(3-(1-((1-phenyl-1H-1,2,3-triazol-4-yl)methyl)piperidin-4-yl)phenyl)propionamide] | < 500
18 | CC(C)S(=O)(=O)Nc1cccc(C2CCN(Cc3cn(-c4ccccc4F)nn3)CC2)n1 [Example 208, N-(6-(1-((1-(2-fluorophenyl)-1H-1,2,3-triazol-4-yl)methyl)piperidin-4-yl)pyridin-2-yl)propane-2-sulfonamide] | < 500
19 | CS(=O)(=O)Nc1ccnc(C2CCN(Cc3cn(-c4ccccc4)nn3)CC2)c1 [Example 193, N-(2-(1-((1-phenyl-1H-1,2,3-triazol-4-yl)methyl)piperidin-4-yl)pyridin-4-yl)methanesulfonamide] | ≥ 500
20 | Oc1cccc(C2CCN(Cc3cn(-c4ccc(C(F)(F)F)nc4)nn3)CC2)c1 [Example 60, 3-(1-((1-(6-(trifluoromethyl)pyridin-3-yl)-1H-1,2,3-triazol-4-yl)methyl)piperidin-4-yl)phenol] | < 100
21 | CC(C)S(=O)(=O)Nc1cccc(C2CCN(Cc3cnn(Cc4cccc(F)n4)c3)CC2)c1 [Example 170, N-(3-(1-((1-((6-fluoropyridin-2-yl)methyl)-1H-pyrazol-4-yl)methyl)piperidin-4-yl)phenyl)propane-2-sulfonamide] | < 100
22 | CS(=O)(=O)Nc1ccc(F)c(C2CCN(Cc3cc(-c4ccccc4)no3)CC2)c1 [Example 179, N-(4-fluoro-3-(1-((3-phenylisoxazol-5-yl)methyl)piperidin-4-yl)phenyl)methanesulfonamide] | < 500
23 | Oc1cccc(C2CCN(Cc3cn(-c4ncccc4C(F)(F)F)nn3)CC2)c1 [Example 218, 3-(1-((1-(3-(trifluoromethyl)pyridin-2-yl)-1H-1,2,3-triazol-4-yl)methyl)piperidin-4-yl)phenol] | < 500
24 | CNS(=O)(=O)c1cccc(C2CCN(Cc3cn(Cc4ccccn4)nn3)CC2)c1 [Example 138, N-methyl-3-(1-((1-(pyridin-2-ylmethyl)-1H-1,2,3-triazol-4-yl)methyl)piperidin-4-yl)benzenesulfonamide] | ≥ 500
25 | COc1c(NS(C)(=O)=O)cccc1C1CCN(Cc2cn(-c3ccccc3)nn2)CC1 [Example 101, N-(2-methoxy-3-(1-((1-phenyl-1H-1,2,3-triazol-4-yl)methyl)piperidin-4-yl)phenyl)methanesulfonamide] | < 500
26 | CS(=O)(=O)Nc1cccc(C2CCN(Cc3cnn(-c4ccccc4)c3)CC2)n1 [Example 203, N-(6-(1-((1-phenyl-1H-pyrazol-4-yl)methyl)piperidin-4-yl)pyridin-2-yl)methanesulfonamide] | < 500
